In patent US20260347372A1, “SMALL MOLECULE INHIBITORS OF KRAS G12D MUTANT” (MERCK SHARP & DOHME LLC, priority 2023, published 2026) one finds IC50 data, which are given here for 16 compounds.

Experiment [1] has as its target KRAS WT (Homo sapiens, UniProt P01116). Description: SOS-catalyzed nucleotide exchange assay, KRAS WT (Procedure A). Type of experiment: biochemical. The settings on record: GNE. In a few lines:
(§1)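 60 min cpd preinc. w/ RAS–Bodipy-GDP–Tb-SA complex; + hSOS/GTP (3 mM final), RT. G12C 3 nM RAS/40 nM SOS; WT, G12D 1 nM/40 nM; 60 min rxn. G13D 1.25 nM, no SOS, 30 min rxn. HEPES pH 7.5, 10 mM MgCl2. Ratio 520/495, norm. to DMSO/max-inhibitor ctrls.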

In experiment [2] the target is KRAS G12V (Homo sapiens, UniProt P01116, G12V). Description: SOS-catalyzed nucleotide exchange assay, KRAS G12V (Procedure A). The experiment is classed as biochemical. The settings on record: GNE. In a few lines: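 Biotinylated KRAS G12V was loaded with Bodipy-GDP alongside Terbium-streptavidin to form a TR-FRET complex, which was preincubated with compounds for 60 minutes in 384-well plates. Human SOS protein and unlabeled GTP were then added for 90 minutes, giving final concentrations of 1.25 nM KRAS-G12V, 160 nM SOS and 3 mM GTP. The 520/495 nm emission ratio was read on an Envision.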
KRAS G12V, sequence (P01116 with tags, fused parts or gaps isoform P01116-2 G12V): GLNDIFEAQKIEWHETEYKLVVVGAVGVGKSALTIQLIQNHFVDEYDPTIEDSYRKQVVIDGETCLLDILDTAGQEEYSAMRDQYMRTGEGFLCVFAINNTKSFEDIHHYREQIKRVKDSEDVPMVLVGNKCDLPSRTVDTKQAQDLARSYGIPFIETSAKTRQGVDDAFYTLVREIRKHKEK

Experiment [3] has as its target KRAS G12D (Homo sapiens, UniProt P01116, G12D). Description: SOS-catalyzed nucleotide exchange assay, KRAS G12D (Procedure A). The experiment is classed as biochemical. The note with it: guanine nucleotide exchange (GNE). In a few lines: as §1
In experiment [4] the target is T1, AsPC-1 cells (Homo sapiens, UniProt P01116, G12D).
T1 construct: p-ERK/total ERK AlphaSureFire read-out
T1 sequence (P01116 1-188 isoform P01116-2 G12D): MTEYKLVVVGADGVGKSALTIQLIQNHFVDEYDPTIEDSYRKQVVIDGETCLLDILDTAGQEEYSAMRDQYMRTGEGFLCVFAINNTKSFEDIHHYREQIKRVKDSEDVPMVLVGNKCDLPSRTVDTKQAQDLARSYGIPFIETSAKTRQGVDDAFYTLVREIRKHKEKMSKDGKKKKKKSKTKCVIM
Description: Cellular phospho-ERK assay, AsPC-1 cells (KRAS G12D). Type of experiment: cell-based. The settings on record: 2 hours, read-out: AsPC1 pERK IC50. In a few lines:
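Compound was titrated 10-point in 3-fold steps (top 30 μM) on KRAS G12D homozygous pancreatic lines PANC08.13 and AsPC-1 for 2 h at 37 °C. The p-ERK/total ERK ratio was measured by multiplex AlphaLISA SureFire and fitted with a 4-parameter logistic model to give IC50.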

KRAS WT, sequence (P01116 with tags, fused parts or gaps isoform P01116-2): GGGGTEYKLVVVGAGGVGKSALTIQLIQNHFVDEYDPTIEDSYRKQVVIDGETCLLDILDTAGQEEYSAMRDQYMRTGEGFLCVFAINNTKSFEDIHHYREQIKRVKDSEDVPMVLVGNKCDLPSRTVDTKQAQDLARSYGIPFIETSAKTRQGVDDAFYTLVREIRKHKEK
KRAS G12D, sequence (P01116 with tags, fused parts or gaps isoform P01116-2 G12D): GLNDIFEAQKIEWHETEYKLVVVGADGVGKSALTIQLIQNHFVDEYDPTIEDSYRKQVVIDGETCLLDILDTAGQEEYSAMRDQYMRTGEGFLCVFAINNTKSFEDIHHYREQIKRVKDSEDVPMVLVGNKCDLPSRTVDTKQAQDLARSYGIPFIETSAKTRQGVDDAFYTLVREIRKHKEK

Usually IC50 stands for the point on the concentration scale where inhibition reaches its midpoint. For `FC(F)(F)C1(COc2nc(N3C[C@H]4CC[C@@H](C3)N4)c3c(n2)sc2c(-c4c(C5CC5)c(Cl)cc5[nH]ncc45)nccc23)CCOCC1` [Ex-118, 4-((1R,5S)-3,8-diazabicyclo[3.2.1]octan-3-yl)-8-(6-chloro-5-cyclopropyl-1H-indazol-4-yl)-2-((4-(trifluoromethyl)tetrahydro-2H-pyran-4-yl)methoxy)pyrido[4′,3′:4,5]thieno[2,3-d]pyrimidine], the IC50 is 6270 nM in experiment [1], above 11100 nM in experiment [2], 3200 nM in experiment [3] and 4880 nM in experiment [4].
Regarding `C#Cc1c(F)ccc2cc3[nH]ncc3c(-c3nccc4c3sc3nc(OC[C@]5(CN6CC7(CCOC7)C6)CC5(F)F)nc(N5C[C@H]6CC[C@@H](C5)N6)c34)c12` [Ex-104, 2-(((1R)-1-(((4-((1R,5S)-3,8-diazabicyclo[3.2.1]octan-3-yl)-8-(5-ethynyl-6-fluoro-1H-benzo[f]indazol-4-yl)pyrido[4′,3′:4,5]thie-no[2,3-d]pyrimidin-2-yl)oxy)methyl)-2,2-difluorocyclopropyl)meth-yl)-6-oxa-2-azaspiro[3.4]octane], the IC50 was found to be 399 nM in experiment [1], 631 nM in experiment [2], 1.94 nM in experiment [3] and 48.4 nM in experiment [4].
Taken in the same sequence, the figures for `Cc1cc2[nH]ncc2c(-c2nccc3c2sc2nc(OC[C@@]45CCCN4C[C@H](F)C5)nc(N4C[C@@H]5CC[C@H]4CN5)c23)c1C(F)(F)F` [Ex-75, 4-((1S,4S)-2,5-diazabicyclo[2.2.2]octan-2-yl)-2-(((2R,7aS)-2-fluorotetrahydro-1H-pyrrolizin-7a(5H)-yl)methoxy)-8-(6-methyl-5-(trifluoromethyl)-1H-indazol-4-yl)pyrido[4′,3′:4,5]thieno[2,3-d]pyrimidine] were 3680 nM, above 11100 nM, 38.1 nM and 629 nM.
Regarding `F[C@H]1CN2CCC[C@@]2(COc2nc(N3C[C@H]4CC[C@@H](C3)N4)c3c(n2)C2(CC2)c2c-3ccnc2-c2c(C3CC3)c(Cl)cc3[nH]ncc23)C1` (single isomer, unassigned) [Ex-115], the IC50 turned out to be 2050 nM in experiment [1], 2120 nM in experiment [2], 9 nM in experiment [3] and 523 nM in experiment [4].
Taken in the same sequence, the figures for `C#Cc1c(F)ccc2cc3[nH]ncc3c(-c3nccc4c3sc3nc(OC[C@]5(CN6CC7(CC(F)C7)C6)CC5(F)F)nc(N5C[C@H]6CC[C@@H](C5)N6)c34)c12` [Ex-99, 4-((1R,5S)-3,8-diazabicyclo[3.2.1]octan-3-yl)-2-(((R)-2,2-difluoro-1-((6-fluoro-2-azaspiro[3.3]heptan-2-yl)methyl)cyclopropyl)methoxy)-8-(5-ethynyl-6-fluoro-1H-benzo[f]indazol-4-yl)pyrido[4′,3′:4,5]thie-no[2,3-d]pyrimidine] were 1080 nM, 2740 nM, 1.53 nM and 59.9 nM.
For the compound `C#Cc1cc(F)cc2cc3[nH]ncc3c(-c3nccc4c3sc3nc(OC[C@@]56CCCN5C[C@H](F)C6)nc(N5C[C@H]6CC[C@@H](C5)N6)c34)c12` [Ex-86, 4-((1R,5S)-3,8-diazabicyclo[3.2.1]octan-3-yl)-8-(5-ethynyl-7-fluoro-1H-benzo[f]indazol-4-yl)-2-(((2R,7aS)-2-fluorotetrahydro-1H-pyrrolizin-7a(5H)-yl)methoxy)pyrido[4′,3′:4,5]thieno[2,3-d]pyrimidine], the IC50 is 542 nM in experiment [1], 1240 nM in experiment [2], 3.31 nM in experiment [3] and 54.6 nM in experiment [4].
Taken in the same sequence, the figures for `C#Cc1c(F)ccc2cc3[nH]ncc3c(-c3nccc4c3sc3nc(OC[C@@]56CCCN5C[C@H](F)C6)nc(N5C[C@H]6CC[C@@H](C5)N6)c34)c12` [Ex-56] were 225 nM, 283 nM, 4.45 nM and 31.8 nM.
Taken in the same sequence, the figures for `C#Cc1c(F)ccc2cc3[nH]ncc3c(-c3nccc4c3sc3nc(OC[C@]5(CN6CCC7(CCCCC7)CC6)CC5(F)F)nc(N5C[C@H]6CC[C@@H](C5)N6)c34)c12` [Ex-100, 2-(((R)-1-((3-azaspiro[5.5]undecan-3-yl)methyl)-2,2-difluorocyclopropyl)meth-oxy)-4-((1R,5S)-3,8-diazabicyclo[3.2.1]octan-3-yl)-8-(5-ethynyl-6-fluoro-1H-benzo[f]indazol-4-yl)pyrido [4′,3′:4,5]thie-no[2,3-d]pyrimidine] were above 11100 nM, above 11100 nM, 8.52 nM and 753 nM.
Taken in the same sequence, the figures for `C#Cc1c(F)sc2cc3[nH]ncc3c(-c3nccc4c3sc3nc(OC[C@@]56CCCN5C[C@H](F)C6)nc(N5C[C@H]6CC[C@@H](C5)N6)c34)c12` [Ex-82, 4-((1R,5S)-3,8-diazabicyclo[3.2.1]oc-tan-3-yl)-8-(5-ethynyl-6-fluoro-1H-thieno[3,2-f]indazol-4-yl)-2-(((2R,7aS)-2-fluorotetrahydro-1H-pyrrolizin-7a(5H)-yl)methoxy)pyri-do[4′,3′:4,5]thi-eno[2,3-d]pyrimidine] were 12.5 nM, 16.2 nM, 1.93 nM and 6.29 nM.
For the compound `COC1(COc2nc(N3C[C@H]4CC[C@@H](C3)N4)c3c(n2)sc2c(-c4c(C(F)(F)F)c(C)cc5[nH]ncc45)nccc23)CC1` [Ex-26, 4-((1R,5S)-3,8-diazabicyclo[3.2.1]octan-3-yl)-2-((1-methoxycyclopropyl)methoxy)-8-(6-methyl-5-(trifluoromethyl)-1H-indazol-4-yl)pyrido[4′,3′:4,5]thieno[2,3-d]pyrimidine], the IC50 was above 11100 nM in experiment [1], above 11100 nM in experiment [2], 3200 nM in experiment [3] and above 30000 nM in experiment [4].
As to `Cc1cc2[nH]ncc2c(-c2nccc3c2sc2nc(OC[C@@]45CCCN4C[C@H](F)C5)nc(N4[C@@H]5CC[C@H]4CN(CC(C)O)C5)c23)c1C(F)(F)F` (stereo partly shown) [Ex-112], the IC50 in experiment [1] is above 11100 nM; in experiment [2], above 11100 nM; in experiment [3] it was 6770 nM; in experiment [4] it was 14700 nM.
Take `F[C@H]1CN2CCC[C@@]2(COc2nc(N3C[C@H]4CC[C@@H](C3)N4)c3c(n2)sc2c(-c4c(C5(F)CC5)c(C(F)(F)F)cc5[nH]ncc45)nccc23)C1` [Ex-79, 4-((1R,5S)-3,8-diazabicyclo[3.2.1]octan-3-yl)-8-(5-(1-fluorocyclopropyl)-6-(trifluoromethyl)-1H-indazol-4-yl)-2-(((2R,7aS)-2-fluorotetrahydro-1H-pyrrolizin-7a(5H)-yl)methoxy)pyrido[4′,3′:4,5]thieno[2,3-d]pyrimidine]: the IC50 came to 4810 nM in experiment [1], 4490 nM in experiment [2], 12.3 nM in experiment [3] and 612 nM in experiment [4].
Taken in the same sequence, the figures for `F/C=C1\CN2CCC[C@@]2(COc2nc(N3C[C@H]4CC[C@@H](C3)N4)c3c(n2)C2(CC2)c2c-3ccnc2-c2c(C3CC3)c(Cl)cc3[nH]ncc23)C1` (single isomer, unassigned) [Ex-116] were 772 nM, 804 nM, 3.38 nM and 373 nM.
As to `C#Cc1c(F)ccc2cc3[nH]ncc3c(-c3nccc4c3sc3nc(OC[C@]5(CN6CCN(CC(F)(F)F)CC6)CC5(F)F)nc(N5C[C@H]6CC[C@@H](C5)N6)c34)c12` [Ex-101, 4-((1R,5S)-3,8-diazabicyclo[3.2.1]octan-3-yl)-2-(((R)-2,2-difluoro-1-((4-(2,2,2-trifluoroethyl)piperazin-1-yl)methyl)cyclopropyl)methoxy)-8-(5-ethynyl-6-fluoro-1H-benzo[f]indazol-4-yl)pyrido[4′,3′:4,5]thie-no[2,3-d]pyrimidine], the IC50 in experiment [1] is above 11100 nM; in experiment [2], above 11100 nM; in experiment [3] it was 33.1 nM; in experiment [4] it was 1210 nM.
Regarding `Cc1cc2[nH]ncc2c(-c2nccc3c2sc2nc(OC[C@H]4C[C@H](S(C)(=O)=O)C4)nc(N4C[C@H]5CC[C@@H](C4)N5)c23)c1C(F)(F)F` [Ex-29, 4-((1R,5S)-3,8-diazabicyclo[3.2.1]octan-3-yl)-8-(6-methyl-5-(trifluoromethyl)-1H-indazol-4-yl)-2-(((1r,3R)-3-(methylsulfonyl)cyclobutyl)meth-oxy)pyrido[4′,3′:4,5] thieno[2,3-d]pyrimidine], the IC50 in experiment [1] was above 11100 nM; in experiment [2], above 11100 nM; in experiment [3] it was 2480 nM; in experiment [4] it was above 30000 nM.
`CCc1c(F)ccc2cc3[nH]ncc3c(-c3nccc4c3sc3nc(OC[C@@]56CCCN5C[C@H](F)C6)nc(N5C[C@H]6CC[C@@H](C5)N6)c34)c12` [Ex-87, 4-((1R,5S)-3,8-diazabicyclo[3.2.1]octan-3-yl)-8-(5-ethyl-6-fluoro-1H-benzo[f]indazol-4-yl)-2-(((2R,7aS)-2-fluorotetrahydro-1H-pyrrolizin-7a(5H)-yl)methoxy)pyrido[4′,3′:4,5]thieno[2,3-d]pyrimidine]: the 50% inhibitory concentration (IC50) in experiment [1] came out at 467 nM; in experiment [2] it was 412 nM; in experiment [3] it was 3.58 nM; in experiment [4], 86.3 nM.
